Measurements taken from patent publication US20070276011A1, “Plasminogen Activator Inhibitor-1 Inhibitor” (priority 2003, published 2007).

Target: recombinant human PAI-1 (Homo sapiens, UniProt P05121)
Assay: PAI-1 inhibitory activity, Test Method A (tPA fluorogenic substrate, Tris buffer pH8.0, 37 C)
Format: biochemical
Conditions: Test Method A
Description: To this solution, 50 μL solution of 400 μM fluogenic substrate for tPA (Pyr-Gly-Arg-MCA, Peptide Institute, Inc.) adjusted with the same buffer was added, and reacted for 30 minutes at 37° C. The reaction was stopped by adding 50 μL of 2% acetic acid. Fluorescence was measured at the excitation wavelength=360 nm, emission wavelength=460 or 465 nm using a microplate reader (SPECTRAFLUOR or GENios) by TECAN. The fluorescence intensities in the presence of the PAI-1 as the control (DMSO) or in the absence of the PAI-1 (tPA alone) were taken as 100% and 0% of PAI-1 activities, respectively, and inhibitory ratios of PAI-1 activities in the presence of the test compound were obtained.
<Composition of the Tris Buffer (pH8.0)>

Sequence of recombinant human PAI-1 (P05121 24-402): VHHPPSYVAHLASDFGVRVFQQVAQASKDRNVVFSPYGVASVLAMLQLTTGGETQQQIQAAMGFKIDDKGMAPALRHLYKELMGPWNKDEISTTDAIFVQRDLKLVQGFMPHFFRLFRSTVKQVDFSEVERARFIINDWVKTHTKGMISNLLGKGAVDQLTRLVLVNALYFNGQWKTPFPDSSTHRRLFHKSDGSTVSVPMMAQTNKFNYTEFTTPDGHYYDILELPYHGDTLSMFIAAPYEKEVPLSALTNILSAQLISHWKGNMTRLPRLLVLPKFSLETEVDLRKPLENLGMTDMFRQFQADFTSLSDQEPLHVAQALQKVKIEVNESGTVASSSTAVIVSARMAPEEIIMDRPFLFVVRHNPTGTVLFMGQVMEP

Inhibitory Ratio at 25 μM (%) (25 μM test compound)	Inhibitory Ratio at 25 μM (%) (test compound 25 μM)	SMILES
–	66	CC1=NN(c2cccc(C(=O)O)c2)C(=O)C1=Cc1cc(Br)ccc1OCc1ccccc1 [compound 173]
59	–	COC(=O)c1cccc(NC(=O)c2cc(C=C3SC(=O)N(Cc4ccc(Cl)c(Cl)c4)C3=O)ccc2O)c1 [compound 417, 5-{4-hydroxy-3-[3-(methoxycarbonyl)phenylcarbamoyl]benzylidene}-3-(3,4-dichlorobenzyl)thiazolidine-2,4-dione]
96	–	CCOC1=NN(c2ccc([N+](=O)[O-])cc2)C(=O)C1=Cc1c(O)ccc2ccccc12 [compound 546]
62	–	CCOC1=NN(c2ccc([N+](=O)[O-])cc2)C(=O)C1=Cc1c2ccccc2cc2ccccc12 [compound 547]
–	>99	O=C1C(=Cc2ccc(Cl)c(Cl)c2)C(c2ccccc2)=NN1c1cccc([N+](=O)[O-])c1 [compound 201]
74	–	COc1ccc(COC(=O)c2cc(C=C3SC(=O)N(Cc4ccc(C(F)(F)F)cc4)C3=O)ccc2O)cc1 [compound 387, 5-[4-hydroxy-3-(4-methoxybenzyloxycarbonyl)benzylidene]-3-[4-(trifluoromethyl)benzyl]thiazolidine-2,4-dione]
–	44	CC1=NN(c2ccc(Cl)c(C(=O)O)c2)C(=O)C1=Cc1ccc(-c2cccc(F)c2)o1 [compound 192]
80	–	O=C(O)c1ccc(CN2C(=O)SC(=Cc3ccc(O)c(C(=O)Nc4ccc(Cl)c(Cl)c4)c3)C2=O)cc1 [compound 418]
86	–	CCOC(=O)CCCC1=NN(c2ccc(Cl)cc2)C(=O)C1=Cc1cc(Br)ccc1O [compound 516, 4-(2-Hydroxy-5-bromobenzylidene)-1-(4-chlorophenyl)-3-[3-(ethoxycarbonyl)propyl]-2-pyrazolin-5-one]
>99	–	COc1ccc(NC(=O)c2cc(C=C3SC(=O)N(Cc4cccc(Oc5ccccc5)c4)C3=O)ccc2O)cc1OC [compound 399, 5-[4-Hydroxy-3-(3,4-dimethoxyphenylcarbamoyl)benzylidene]-3-(3-phenoxybenzyl)thiazolidine-2,4-dione]
>99	–	CC(C)C1=NN(c2cc(Cl)cc(Cl)c2)C(=O)C1=Cc1cc(C=Cc2ccccc2)ccc1O [compound 525]
>99	–	CC(C)C1=NN(c2ccc(Cl)c(Cl)c2)C(=O)C1=Cc1cc(O)ccc1[N+](=O)[O-] [compound 558]
–	86	O=C1SC(=Cc2cccc(O)c2O)C(=O)N1Cc1ccc([N+](=O)[O-])cc1 [compound 51, 5-(2,3-dihydroxybenzylidene)-3-(4-nitrobenzyl)thiazolidine-2,4-dione]
97	–	O=C(Nc1cc(C=C2SC(=O)N(Cc3ccc(Cl)c(Cl)c3)C2=O)ccc1O)c1ccc(O)cc1 [compound 382]
–	32	CC1=NN(c2cccc(C(=O)O)c2)C(=O)C1=Cc1ccc(-c2cccc([N+](=O)[O-])c2)o1 [compound 193]
95	–	CCOC1=NN(c2ccc([N+](=O)[O-])cc2)C(=O)C1=Cc1c(O)cccc1O [compound 552]
>99	–	COCC1=NN(c2ccc([N+](=O)[O-])cc2)C(=O)C1=Cc1cc(C=Cc2ccccc2)ccc1O [compound 538, 4-(2-Hydroxy-5-styrylbenzylidene)-1-(4-nitrophenyl)-3-methoxymethyl-2-pyrazolin-5-one]
–	>99	O=C1C(=Cc2cc(O)c(O)c(O)c2)C(c2ccccc2)=NN1c1cc(Cl)cc(Cl)c1 [compound 131]
–	84	COC(=O)c1cccc(N2N=C(c3ccccc3)C(=Cc3ccc(Br)o3)C2=O)c1 [compound 194]

Second part, the compound before the results:

SMILES	Inhibitory Ratio at 25 μM (%) (25 μM test compound)	Inhibitory Ratio at 25 μM (%) (test compound 25 μM)
COc1ccc(OC)c(NC(=O)c2cc(C=C3SC(=O)N(Cc4ccc(Cl)c(Cl)c4)C3=O)ccc2O)c1 [compound 471]	96	–
O=C1SC(=Cc2ccc(O)c(O)c2)C(=O)N1Cc1ccc(Br)cc1 [compound 37]	–	>99
CC1=NN(c2ccc(Cl)c(Cl)c2)C(=O)C1=Cc1cc(O)c(O)c(O)c1 [compound 144, 4-(3,4,5-Trihydroxybenzylidene)-1-(3,4-dichlorophenyl)-3-methyl-2-pyrazolin-5-one]	–	53
O=C1SC(=Cc2cccc(O)c2O)C(=O)N1Cc1cc(Cl)cc(Cl)c1 [compound 11, 5-(2,3-Dihydroxybenzylidene)-3-(3,5-dichlorobenzyl)thiazolidine-2,4-dione]	–	>99
O=C1SC(=Cc2ccc(O)c(O)c2)C(=O)N1Cc1ccc(Cl)c(Cl)c1 [compound 9]	–	>99
O=C1SC(=Cc2ccc(O)c(O)c2)C(=O)N1Cc1cccc(C(F)(F)F)c1 [compound 42]	–	>99
O=C1C(=Cc2cc(O)c(O)c(O)c2)C(C(F)(F)F)=NN1c1cc(Cl)cc(Cl)c1 [compound 149]	–	>99
COc1ccc(C=C2SC(=O)N(Cc3ccc(Cl)c(Cl)c3)C2=O)cc1C(F)(F)F [compound 333]	73	–
COc1ccc(NC(=O)c2cc(C=C3SC(=O)N(Cc4cc(C(F)(F)F)ccc4C(F)(F)F)C3=O)ccc2O)cc1OC [compound 372, 5-[4-Hydroxy-3-(3,4-dimethoxyphenylcarbamoyl)benzylidene]-3-[2,5-bis(trifluoromethyl)benzyl]thiazolidine-2,4-dione]	>99	–
COc1ccc(NC(=O)c2cc(C=C3SC(=O)N(Cc4ccc(C(F)(F)F)cc4)C3=O)ccc2O)cc1OC [compound 391, 5-[4-Hydroxy-3-(3,4-dimethoxyphenylcarbamoyl)benzylidene]-3-[4-(trifluoromethyl)benzyl]thiazolidine-2,4-dione]	>99	–
O=C(Nc1ccc2c(c1)OCO2)c1cc(C=C2SC(=O)N(Cc3ccc(Cl)c(Cl)c3)C2=O)ccc1O [compound 428]	86	–
COc1ccc(NC(=O)c2cc(C=C3SC(=O)N(Cc4ccc(Cl)c(Cl)c4)C3=O)ccc2O)cc1OC [compound 351, 5-[4-Hydroxy-3-(3,4-dimethoxyphenylcarbamoyl)benzylidene]-3-(3,4-dichlorobenzyl)thiazolidine-2,4-dione]	54	–
COC(=O)c1cccc(NC(=O)c2cc(C=C3SC(=O)N(Cc4ccc(Cl)c(Cl)c4)C3=O)cc(O)c2O)c1 [compound 470]	95	–
O=C(Nc1ccc(O)c(O)c1)c1cc(C=C2SC(=O)N(Cc3ccc(Cl)cc3Cl)C2=O)ccc1O [compound 398]	>99	–
COc1ccc(C=C2SC(=O)N(Cc3ccc(Cl)c(Cl)c3)C2=O)cc1F [compound 331, 5-(3-fluoro-4-methoxybenzylidene)-3-(3,4-dichlorobenzyl)-thiazolidine-2,4-dione]	35	–
CC(C)C1=NN(c2cc(Cl)cc(Cl)c2)C(=O)C1=Cc1cc(O)c(O)c(O)c1 [compound 130]	–	>99
CC(=O)Nc1ccc(C=C2SC(=O)N(Cc3ccc(Cl)c(Cl)c3)C2=O)cc1 [compound 79, 5-[4-(acetamido)benzylidene]-3-(3,4-dichlorobenzyl)-thiazolidine-2,4-dione]	–	65
